Measurements as given in US20250108070A1, “METHOD FOR REPROGRAMMING CD8+ T CELLS TO ENHANCE THEIR THERAPEUTIC POTENTIAL AND APPLICATIONS THEREOF” (INSTITUT PASTEUR, priority 2022, published 2025).

Tested on: CD8+ T cells from people without HIV
Assay: In vitro reprogramming of bulk CD8+ T cells, phenotype without further stimulation
Type: cell-based, human
Method: FIG. 1. Induction of stem-like CD8^+ T cells with high survival capacity and polyfunctionality by in vitro reprogramming. A. CD8^+ T cells from people without HIV were incubated with medium, vehicle control, or a GSK3 inhibitor, for 12 hs and the phenotype was evaluated by flow cytometry. A representative donor from a total of 4 is shown. B. Frequencies of CD8^+ T cell subpopulations after each treatment. C. Fold change of CD8^+ T cell subpopulations after treatment with vehicle control or a GSK3 inhibitor, relative to medium alone condition (n=4). D. Expression of TCF-1 in CD8^+ T cell subpopulations (n=4). E. The expression of the indicated markers in cells pre-treated with vehicle control or a GSK3 inhibitor was evaluated by flow cytometry. The fold change in the expression induced by 48 hs anti-CD3/CD28 stimulation, relative to unstimulated cells, is shown (n=5). F. Left: Flow cytometry analysis of dead cells (Aqua Live/Dead^+) among total and T-bet+CD8^+ T cells. Right: Fold change in dead CD8^+ T cells induced by anti-CD3/CD28 stimulation, relative to the unstimulated condition (n=5). G. Frequencies of granzyme B^+, TL-2^+, IFN-γ^+, and TNF-α^+CD8^+ T cells after anti-CD3/CD28 stimulation. H. Expression of 1 to 4 functions in CD8^+ T cells after anti-CD3/CD28 stimulation (n=5). I. After reprogramming with the GSK3 inhibitor, CD8^+ T cells were stimulated for 48 hs with anti-CD3/CD28, followed by wash and resting for 5 days. Then, cells were restimulated for another 48 hs with anti-CD3/CD28. Left: Flow cytometry analysis of proliferating (CFSE dilution) CD8^+ T cells. Right: Frequencies of CD8^+ T cells with 0, 1-3 or ≥4 cell divisions (n=9). J. Frequency of the total HCMV pp65-specific CD8^+ T cell response (IFN-γ^+ or CD107a^+ or TNF-α^+), after vehicle control or GSK3 inhibitor treatment, followed by HCMV pp65 peptides stimulation for 6 hs (n=6). K. Frequencies of CD8^+ T cell subpopulations among HCMV pp65-specific CD8^+ T cells (n=6). L. Expression of IFN-γ, CD107a, and TNF-α in HCMV pp65-specific CD8^+ T cells (n=6). M. Frequency of the total HCMV pp65-specific CD8^+ T cell response after HCMV pp65 peptides stimulation for 6 days (n=6). *P<0.05; **P≤0.01. NS: Not statistically significant. TSCM: Stem cell memory; TCM: Central memory; TTM: Transitional memory; TEM: Effector memory; TTE: Terminal effector.
FIG. 2. A. Flow cytometry gating strategy used to identify CD8^+ T cell subpopulations: Naïve, Stem cell memory (TSCM), Central memory (TCM), Transitional memory (TTM), Effector memory (TEM), and Terminal effector (TTE). B. Expression of CCR7, CD27 and TCF-1 in total CD8^+ T cells after treatment with vehicle control, or the GSK3 inhibitors BIO or TWS119, for 12 hs. The median fluorescence intensity of each marker is depicted. C. Fold change in TSCM, TCM and TEM cells induced by BIO or TWS119, relative to vehicle control (n=3 people without HIV). D. Fold change in T-bet^+ cells among TSCM and TCM induced by anti-CD3/CD28 stimulation, relative to vehicle control, in cells previously treated with vehicle control, BIO or TWS119 (n=3). E. Fold change in T-bet^+ cells among naïve/TSCM induced by anti-CD3/CD28 stimulation (0.2 and 1 μg/mL), relative to unstimulated cells, previous treatment with vehicle control or the GSK3 inhibitor (n=3). F. Fold change in T-bet^+ cells among each CD8^+ T cell subpopulation induced by anti-CD3/CD28+ICAM-1 stimulation, relative to unstimulated cells (n=5). G. Frequency of IL-2^+TNF-α^+ cells among each CD8^+ T cell subpopulation after anti-CD3/CD28+ICAM-1 stimulation (n=5). H. Correlation between the frequency of PD-1^+LAG-3^+TIM3^+TIGIT^+CD8^+ T cells and the proportion of CD8^+ T cells with ≥4 cell divisions after restimulation (n=6). I. After reprogramming with the GSK3 inhibitor, CD8^+ T cells were left unstimulated, stimulated once for 48 hs with anti-CD3/CD28, or stimulated twice with anti-CD3/CD28. The expression of T-bet in TCM and TTM cells is shown (n=5). *P<0.05. […]

[1] = BIO and TWS119 in parallel, 3 μM, 12 hs, FIG. 2C

Structure (SMILES): O=C1Nc2cc(Br)ccc2/C1=C1/Nc2ccccc2/C1=N\O [BIO, 6-bromoindirubin-3′-oxime]
- expression of TCF-1 (3 μM, 12 hs, FIG. 1D): enhanced expression
- CD8+ T cells with stem cell memory (TSCM) and central memory (TCM) phenotype (3 μM, 12 hs, FIGS. 1A-C): enrichment
- effector memory (TEM) and terminal effector (TTE) cells (3 μM, 12 hs, FIGS. 1A-C): decrease
- surface expression of CCR7 and CD27 (3 μM, 12 hs, absence of further stimulation, FIG. 1A): upregulation
- CCR7, CD27, and TCF-1 (BIO and TWS119 in parallel, 3 μM, 12 hs, FIG. 2B): induced
- TEM cells [1]: decrease
- TSCM and TCM cells [1]: increase
- effect compared between the two GSK3 inhibitors (FIGS. 2B and C): greater effect than TWS119
